US12410178B2, “Small cationic ortho-5,15-di-heteroaryl-porphyrin derivatives and their applications in photoinactivation of microorganisms” (UNIVERSIDADE DE COIMBRA, priority 2019, dated 2025)

Tests used:
[1] = Optical absorption, molar absorption coefficient; format: physicochemical; settings: water with 9% dimethylsulfoxide
Description: Optical Absorption: The ultra-violet visible optical absorption (UV-vis) spectra used in the control of the synthesis were recorded on Hitachi U-2001 or Shimadzu 2100 spectrophotometers using spectroscopic grade solvents. The UV-Vis-NIR optical absorption was recorded with an Agilent Cary5000 UV-Vis-NIR Spectrophotometer in the determination of the molar absorption coefficient and with Shimadzu UV-2100 spectrometer in routine measurements. The absorption spectra were recorded in the wavelengths from 300 nm up to 800 nm. Molar absorption coefficients were determined by using Beer-Lambert's law. For each compound, a minimum of 6 solutions were prepared in concentrations ranging from 10^−7 to 10^−6 M, giving absorbance values between 0.1 and 1.
The absorptivities of the compounds and other photophysical and photobiological properties were measured as described in the Materials and Methods. […] This is indicative of negligible aggregation between the molecules, which exist mostly as monomers at the studied concentrations in the selected solvents. […] The same table also presents the fluorescence quantum yield (ΦF), singlet oxygen generation (ΦΔ) and the logarithm of the n-octanol:water partition coefficient (log POW). […]

[2] = tested on: Pseudomonas aeruginosa ATCC 27853; test: PDI phototoxicity towards planktonic bacteria (CFU); format: cell-based; settings: 60 min incubation
Description: (§1) Phototoxicity towards bacteria was evaluated in vitro. Assays were performed with the following bacteria: Escherichia coli ATCC 25922, Pseudomonas aeruginosa ATCC 27853 and Staphylococcus aureus ATCC 29213. Further assay were performed with clinical antibiotic-resistant strains from the Centro Hospitalar da Universidade de Coimbra, namely Staphylococcus aureus methicillin-resistant (MRSA) strain Sa1CHUC recovered from the skin of a burnt patient (resistant to all beta-lactamic antibiotics), and Acinetobacter baumannii 141HUC isolated from an exudate of a burn wound and highly resistant to all beta-lactamics (penicillins, cephalosporins, monobactams and carbapenems), quinolones and the aminoglycosides gentamicin and netilmicin. The planktonic bacteria cells were cultured in Mueller Hinton (MH) agar (Sigma Aldrich) at 37° C. overnight. Cell density was adjusted to the 0.5 McFarland standard in sterile water, which corresponds to approximately 1.5×10^8 CFU/mL. For PDI experiments cell suspensions of bacteria were incubated with various concentrations of the photosensitizers for 1 h, in the dark, at room temperature, using a 96 well plate. Then, the plate was illuminated with a blue light LED (420 nm, 4 mJ/s). Cells incubated with photosensitizers in the dark were covered with aluminum foil for the same time as the PDI groups (1 h). After illumination (or dark incubation) samples were shaken, diluted in PBS and mixed. Aliquots were taken from each well and streaked in MH agar in duplicate for CFU determination and incubated for 37° C./18-24 h in the dark. After 24 h, the colonies were counted and CFU determined. The experiments were performed in triplicate. Statistical analysis was performed with GraphPad Prism 6.
(§2) This example describes the evaluation of in vitro phototoxicity against Gram-positive and Gram-negative bacteria of the cationic ortho-5,15-di-heteroaryl porphyrin with Formula (IIa). The phototoxicity was measured according to the description in the Materials and Methods section. […] There is a dose-phototoxicity response of the test compound relative to the non-treated control. FIG. 8 illustrates the CFU reduction as a function of photosensitizer concentration for the light dose of 1.36 J/cm^2 at 415 nm.

[3] = tested on: Staphylococcus aureus ATCC 29213; test: as above; format: cell-based
Description: as §1, §2

[4] = tested on: Escherichia coli ATCC 25922; test: as above; format: cell-based
Description: as §1, §2

[5] = Photobleaching / photodecomposition experiments; format: physicochemical
Description: Photobleaching experiments: Photodecomposition experiments were made dissolving the photosensitizers in water with 9% dimethylsulfoxide. A volume of 3 mL was placed in a cuvette and irradiated ensuring that all the light hits the solution. The porphyrins were irradiated using a LED light with emission at 415 nm and an effective output power of 0.27 mW. Photodecomposition quantum yield (Φpd) is defined as the ratio between the rate of disappearance of photosensitizer molecules vd and the rate of absorption of photons vp.
The intensity of its longest wavelength absorption band at 622 nm decreased by less than ΔA=0.001 after 15,000 second of illumination corresponding to an effective absorption of ca. 4 J. This places an upper limit of 0.001 to the photodecomposition quantum yield.

[6] = 1 μM, planktonic, 1.36 J/cm^2 at 415 nm, 60 min incubation
[7] = nanomolar concentrations, 60 min incubation, low light doses

Cn1cc[n+](C)c1C1=C2C=CC3=[N+]2[Zn@]24[n]5c(ccc51)C=C1C=CC(=[N+]12)C(c1n(C)cc[n+]1C)=c1ccc([n]14)=C3 [Formula (IIa), 5,15-bis(1,3-dimethylimidazol-2-yl)porphyrinate zinc (II) diiodide]
ε(λ)/10^3 molar absorption coefficient ([1]; at 407 nm): >20 10^3 M^−1 cm^−1 | λ (most intense absorption band) [1]: 407 nm | log CFU at 1 μM, P. Aerogirosa ([2]; 1 μM, planktonic, 1.36 J/cm^2 at 415 nm): 3 | CFU reduction (in words) ([2]; nanomolar concentrations, low light doses): dramatic decrease in CFU | reduction of the number of bacterial CFU ([3]; 1 μM, 1.36 J/cm^2 at 415 nm): 7 orders of magnitude | log CFU at 1 μM, S. Aureus [3, 6]: 7 | CFU reduction (in words) [3, 7]: dramatic decrease in CFU | reduction of the number of bacterial CFU ([4]; 1 μM, 1.36 J/cm^2 at 415 nm): 7 orders of magnitude | log CFU at 1 μM, E. Coli [4, 6]: 7 | CFU reduction (in words) [4, 7]: dramatic decrease in CFU | photodecomposition quantum yield ([5]; LED 415 nm, water with 9% dimethylsulfoxide): ≤ 0.001 | decrease ΔA of longest wavelength absorption band at 622 nm ([5]; after 15,000 second of illumination, effective absorption ca. 4 J): < 0.001
